Test results reported in patent US8785499B2 (priority 2009, dated 2014).

What was measured:
ecNadD = ecNadD (Escherichia coli (strain K12), UniProt P0A752); assay: biochemical; format: biochemical
baNadD = baNadD (Bacillus anthracis, UniProt C3L5T6); assay: biochemical; format: biochemical
baNadD, sequence (C3L5T6 whole entry, looked up): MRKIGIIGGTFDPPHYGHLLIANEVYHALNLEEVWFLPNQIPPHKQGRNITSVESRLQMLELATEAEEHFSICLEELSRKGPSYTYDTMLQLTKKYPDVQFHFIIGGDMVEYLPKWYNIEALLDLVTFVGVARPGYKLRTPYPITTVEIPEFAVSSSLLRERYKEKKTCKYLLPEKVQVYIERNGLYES

Structure (SMILES) | […]. coli (ecNadD) [%] | […]. anthracis (baNadD) [%]
Cc1nnc(SCC(=O)Nc2ccc(Cl)cn2)[nH]c1=O [compound 146] | 5 | 11
Cc1ccc(C(=O)N/N=C/c2ccc(O)c(I)c2)cn1 [compound 147] | 5 | 12
O=C(O)/C=C/c1ccncc1 [compound 148] | 5 | 4
CCS(=O)(=O)n1nc(-c2ccc(OC)cc2)nc1N [compound 149] | 5 | 0
CSc1ccc(CNc2ccc(S(N)(=O)=O)cc2)cc1 [compound 150] | 5 | 0
O=C(/C=C/c1ccoc1)c1ccccc1O [compound 151] | 5 | 0
O=C(O)C1C2C=CC(C2)C1C(=O)Nc1ccc(Cl)c(Cl)c1 (stereo not drawn) [compound 152] | 5 | 0
O=C(O)c1cc(NS(=O)(=O)c2cccc3nsnc23)cc(C(=O)O)c1 [compound 153] | 5 | 0
O=C(O)CNC(=S)N(Cc1ccccc1)Cc1cccs1 [compound 154] | 5 | 0
Cc1ccc2nc(NC(=S)NC(=O)c3cccs3)sc2c1 [compound 155] | 5 | 26
O=C(O)c1ccccc1C(=O)c1cccs1 [compound 156] | 5 | 22
NS(=O)(=O)c1ccc(NCc2cccc(Cl)c2Cl)cc1 [compound 157] | 5 | 0
CSc1sc(C(=O)O)c(I)c1S(=O)(=O)C(C)C [compound 158] | 4 | 36
O=C(O)C1=C(c2cc([N+](=O)[O-])ccc2O)N=S=N1 [compound 159] | 4 | 1
Cc1ccc(-c2nnc(SCC(=O)O)[nH]2)cc1 [compound 160] | 4 | 0
N=C(NNS(=O)(=O)c1ccccc1)c1ccccn1 [compound 161] | 4 | 68
Cc1ccc(S(=O)(=O)/N=C(\N)c2ccc(F)cc2)cc1 [compound 162] | 4 | 0
CS(=O)(=O)N(CC(=O)Nc1ccccc1Br)c1ccc(Cl)cc1 [compound 163] | 4 | 54
Nc1cc(=O)[nH]c(SCC(=O)Nc2ccc(S(N)(=O)=O)cc2)n1 [compound 164] | 4 | 32
O=[N+]([O-])c1cc(Cl)ccc1NCCCNS(=O)(=O)c1ccccc1 [compound 165] | 4 | 0
O=C(O)c1cccc(-n2nc(O)ccc2=O)c1 [compound 166] | 4 | 19
O=C(CSc1nc2ccccc2c(=O)[nH]1)NCc1ccco1 [compound 167] | 4 | 0
O=C(O)CN1C(=O)CC(Cc2ccc(Cl)cc2)C1=O (stereo not drawn) [compound 168] | 3 | 0
O=C(O)CSc1nc2ccccc2n1CC(=O)O [compound 169] | 3 | 0
COc1ccc(S(=O)(=O)Nc2ccc(CC#N)cc2)cc1C [compound 170] | 3 | 0

Structure (SMILES) | […]. coli (ecNadD) [%] | […]. anthracis (baNadD) [%]
O=C(NNC(=O)C1CC=CCC1C(=O)O)c1cccc([NH2+][O-])c1 (stereo not drawn) [compound 171] | 3 | 24
O=C(O)c1ccc(/C=N/NC(=O)c2cc3cc(Br)ccc3o2)cc1 [compound 172] | 3 | 32
Nc1nc(SCC(=O)NCC2CCCO2)n[nH]1 (stereo not drawn) [compound 173] | 3 | 0
O=C(O)c1cccc(COc2ccc(CO)cc2Cl)c1 [compound 175] | 3 | 0
O=C(O)CSc1nc(=O)cc(-c2ccccc2)[nH]1 [compound 176] | 3 | 0
O=C(CSC(=O)c1ccccc1)Nc1ccc(Cl)cn1 [compound 177] | 3 | 21
CS(=O)(=O)NCCOc1ccc(S(=O)(=O)NCc2ccccc2)cc1 [compound 179] | 3 | 0
O=C(O)c1cccc(CSc2ncccn2)c1 [compound 180] | 3 | 15
O=C(O)c1ccc(OCOc2ccc(C(=O)O)c(C(=O)O)c2)cc1C(=O)O [compound 181] | 3 | 56
CC(=NNC(=O)COc1ccc(C)cc1)C(=O)O [compound 182] | 3 | 14
Nc1nnc(-c2cc(-c3ccc(Cl)cc3)on2)o1 [compound 183] | 3 | 7
Cc1ccccc1N1CC(C(=O)O)CC1=O (stereo not drawn) [compound 184] | 2 | 16
O=C(O)c1[nH]c2ccc(Cl)cc2c1-c1ccccc1 [compound 185] | 2 | 40
O=C(Nc1ccc([N+](=O)[O-])cn1)c1sc2ccccc2c1Cl [compound 186] | 2 | 9
C=CCSc1nnc(-c2cc(Br)ccc2N)c(O)n1 [compound 187] | 2 | 0
O=S(=O)(NCc1cccs1)c1ccc(Br)cc1 [compound 188] | 1 | 0
O=C(CSc1n[nH]c(=O)[nH]c1=O)N/N=C\c1ccc(Br)cc1 [compound 189] | 1 | 0
CN1CCN(C(=O)c2ccccc2C(=O)O)CC1 [compound 190] | 1 | 0
N/N=C/c1c(Cl)cccc1Cl [compound 191] | 1 | 5
COc1ccc(N(CC(=O)O)S(=O)(=O)c2ccc(C)cc2)cc1Cl [compound 192] | 1 | 0
O=C(O)CCSCCc1ccncc1 [compound 193] | 1 | 18
O=C1NC(=O)/C(=C\c2ccc(O)c(I)c2)N1 [compound 194] | 1 | 62
O=C(NNC(=O)c1ccccc1C(=O)O)c1ccc(Cl)cc1 [compound 195] | 1 | 0
COCCNS(=O)(=O)c1ccc2c(c1)CCN2C(=O)CCC(=O)O [compound 196] | 1 | 52
O=C(CSc1nc2ccccc2[nH]1)Nc1nncs1 [compound 197] | 0 | 34

Structure (SMILES) | […]. coli (ecNadD) [%] | […]. anthracis (baNadD) [%]
N=C1NC(=O)C(Cc2ccccc2Cl)S1 (stereo not drawn) [compound 198] | 0 | 7
Cc1cc(S(=O)(=O)Nc2cccc(C(=O)O)c2)ccc1Cl [compound 199] | 0 | 0
CC(=NNC(=O)CCC(=O)Nc1ccc(Br)cc1)c1ccc2ccccc2c1 [compound 200] | 0 | 76
Cc1ccc(-c2nnc(SCC(=O)O)o2)cc1 [compound 201] | 0 | 25
O=C(N/N=C/c1ccccc1Cl)c1cccnc1 [compound 202] | 0 | 32
O=S(=O)(Nc1ccc(Br)c(Cl)c1)c1cccs1 [compound 203] | 0 | 0
NS(=O)(=O)c1ccc(NC(=O)CSc2ncn(-c3ccccc3)n2)cc1 [compound 205] | 0 | 40
NS(=O)(=O)c1ccc(NC(=S)NCCc2c[nH]c3ccccc23)cc1 [compound 206] | 0 | 25
O=C(O)CCCC(=O)Nc1nc2ccccc2s1 [compound 207] | 0 | 7
CSc1cccc(NS(=O)(=O)c2ccc(F)cc2)c1 [compound 208] | 0 | 0
O=C(O)c1cc(NC(=O)c2ccc(Cl)cc2Cl)cc(C(=O)O)c1 [compound 209] | 0 | 0
Cc1ccc(S(=O)(=O)/N=C(/NCC(=O)O)c2ccccc2)cc1 [compound 211] | 0 | 42
CCC(NS(=O)(=O)c1ccc(OC)cc1)C(=O)O (stereo not drawn) [compound 212] | 0 | 32
NS(=O)(=O)c1ccc(CCNC(=O)c2ccc([NH2+][O-])cc2)cc1 [compound 213] | 0 | 54
NS(=O)(=O)c1ccc(/N=C/c2ccc(Br)cc2)cc1 [compound 214] | 0 | 0
O=C(O)c1ccc(-n2ncc(Cl)c(Cl)c2=O)cc1 [compound 217] | 0 | 0
NS(=O)(=O)c1ccc(N/C=C2\C(=O)Oc3ccccc3C2=O)cc1 [compound 218] | 0 | 0
CCOC(=O)c1ccc(N/C=C2\C(=O)Oc3ccccc3C2=O)cc1 [compound 220] | 0 | 0
O=C(NCc1cccs1)C1CC(c2cccc(Br)c2)=NO1 (stereo not drawn) [compound 222] | 0 | 0
CC(C)COC1CS(=O)(=O)CC1OCC(C)C (stereo not drawn) [compound 223] | 0 | 20
CSc1ccccc1NC(=S)Nc1cccnc1 [compound 224] | 0 | 0
Brc1ccc2ncnc(NCc3cccnc3)c2c1 [compound 225] | 0 | 55
O=C(O)C1CCCN(S(=O)(=O)c2cccc([N+](=O)[O-])c2)C1 (stereo not drawn) [compound 227] | 0 | 0
O=C(CSc1ncnc2ccccc12)Nc1ccc2nsnc2c1 [compound 228] | 0 | 28
O=C(CSc1nc2ccccc2o1)Nc1nncs1 [compound 229] | 0 | 0
